Values belong to the compound of their own block, whether it stands above or below them. Calls of active or inactive are those of the source.
Assays:
[1] = target: T1, Sentrin-specific protease 1 (Homo sapiens, UniProt Q9P0U3); test: potency of human SENP1 inhibitors, dose response, biochemical, kinetic FRET (AID 651697); format: functional; conditions: read-out: IC50_Mean
[2] = target: T2, Heat shock factor protein 1 (Mus musculus, UniProt P38532); test: HSF1 potentiators in luciferase reporter cells, confirmation, cell-based, NIH3T3, luminescence, dose retest (AID 435004); format: functional;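 further: stress induced by proteasome inhibitor MG132 added 30 min after compound; luciferase reporter driven by HSF1 response element in NIH3T3 cells; actives raise luminescence as potentiators of the MG132 stress response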
T2 sequence (P38532 whole entry): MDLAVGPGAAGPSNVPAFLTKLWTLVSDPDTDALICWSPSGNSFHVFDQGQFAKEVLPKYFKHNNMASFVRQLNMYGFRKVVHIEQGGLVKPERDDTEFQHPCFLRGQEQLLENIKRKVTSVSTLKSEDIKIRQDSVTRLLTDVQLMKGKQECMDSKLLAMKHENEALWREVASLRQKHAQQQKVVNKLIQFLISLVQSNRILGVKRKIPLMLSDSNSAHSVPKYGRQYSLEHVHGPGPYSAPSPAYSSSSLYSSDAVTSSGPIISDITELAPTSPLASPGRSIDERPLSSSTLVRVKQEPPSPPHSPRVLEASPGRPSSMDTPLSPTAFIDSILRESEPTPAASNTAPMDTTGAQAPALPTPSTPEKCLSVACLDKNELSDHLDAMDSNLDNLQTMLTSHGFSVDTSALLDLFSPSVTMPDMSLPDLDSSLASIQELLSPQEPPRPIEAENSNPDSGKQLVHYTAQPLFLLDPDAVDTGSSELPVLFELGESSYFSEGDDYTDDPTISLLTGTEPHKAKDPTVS

[3] = target: T1, Sentrin-specific protease 1; test: Dose response confirmation of small molecule inhibitors of the catalytic domain of the SUMO protease, SENP1 in a FRET assay.; format: functional; conditions: read-out: IC50_Mean
[4] = StAR promoter reporter inhibition counter-screen, dose response, counter-screen for LRH-1 inverse agonist project, cell-based, luminescence, luciferase reporter (AID 651969); format: functional
Steroidogenic factor 1 = Steroidogenic factor 1 (Homo sapiens, UniProt Q13285); test: Counterscreen for inverse agonists of the liver receptor homolog-1 (LRH-1; NR5A2): Luminescence-based cell-based high throughput dose response assay to identify inverse agonists of the Steroidogenic Factor 1 Nuclear Receptor (SF1; NR5A1).; format: functional
[5] = target: Nuclear receptor subfamily 5 group A member 2 (Homo sapiens, UniProt O00482); format: functional, cell-based;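 further: HEK293T cells transfected with LRH-1 and a StAR promoter luciferase reporter; potency for inhibitors that lower LRH-1 driven reporter light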
[6] = target: Low molecular weight phosphotyrosine protein phosphatase (Homo sapiens, UniProt P24666); format: functional; conditions: read-out: IC50_Mean;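 further: Dose-response confirmation assay measuring inhibition of LMPTP enzyme activity by fluorescence intensity read-out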
[7] = target: T3, Tyrosine-protein phosphatase non-receptor type 22 (Homo sapiens, UniProt Q9Y2R2); test: LYP phosphatase inhibition for selectivity, dose response, selectivity assay for LMPTP inhibitor project, biochemical, fluorescence, LYP catalytic domain (AID 652006); format: functional; conditions: read-out: IC50_Mean
T3 sequence (Q9Y2R2 whole entry): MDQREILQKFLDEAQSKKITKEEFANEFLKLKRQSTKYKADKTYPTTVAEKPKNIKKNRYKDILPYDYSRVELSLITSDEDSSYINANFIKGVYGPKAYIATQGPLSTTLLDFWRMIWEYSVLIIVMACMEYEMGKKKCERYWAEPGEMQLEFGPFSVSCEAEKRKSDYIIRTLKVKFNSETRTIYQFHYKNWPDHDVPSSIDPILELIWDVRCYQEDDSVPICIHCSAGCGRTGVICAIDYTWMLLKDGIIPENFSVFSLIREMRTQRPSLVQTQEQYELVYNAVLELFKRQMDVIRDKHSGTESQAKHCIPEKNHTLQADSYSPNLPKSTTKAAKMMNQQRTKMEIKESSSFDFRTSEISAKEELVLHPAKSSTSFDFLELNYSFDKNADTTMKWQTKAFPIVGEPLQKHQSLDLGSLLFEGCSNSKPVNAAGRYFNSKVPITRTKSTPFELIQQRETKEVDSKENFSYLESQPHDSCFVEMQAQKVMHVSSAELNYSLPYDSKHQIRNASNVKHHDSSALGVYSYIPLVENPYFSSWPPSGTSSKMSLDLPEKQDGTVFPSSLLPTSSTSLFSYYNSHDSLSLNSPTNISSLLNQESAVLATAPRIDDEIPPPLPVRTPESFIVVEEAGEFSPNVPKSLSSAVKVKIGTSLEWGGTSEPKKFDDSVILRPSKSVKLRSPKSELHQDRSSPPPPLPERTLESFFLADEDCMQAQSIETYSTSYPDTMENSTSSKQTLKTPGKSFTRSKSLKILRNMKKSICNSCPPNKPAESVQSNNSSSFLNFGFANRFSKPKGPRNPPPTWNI

[8] = target: T4, Sentrin-specific protease 8 (Homo sapiens, UniProt Q96LD8); format: functional
T4 sequence (Q96LD8 whole entry): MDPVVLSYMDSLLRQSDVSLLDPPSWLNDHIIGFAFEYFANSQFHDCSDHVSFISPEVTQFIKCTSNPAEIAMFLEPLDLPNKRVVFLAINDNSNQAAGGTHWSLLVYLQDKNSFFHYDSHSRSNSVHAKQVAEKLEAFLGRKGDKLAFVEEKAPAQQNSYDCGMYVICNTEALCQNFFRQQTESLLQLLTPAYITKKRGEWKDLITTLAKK

[9] = target: T4, Sentrin-specific protease 8; format: functional; remark: listed apart in the source
[10] = target: T5, Methionyl-tRNA synthetase, putative (Trypanosoma brucei brucei, UniProt Q38C91); format: functional, Trypanosoma brucei brucei strain 927/4 GUTat10.1
T5 sequence (Q38C91 whole entry): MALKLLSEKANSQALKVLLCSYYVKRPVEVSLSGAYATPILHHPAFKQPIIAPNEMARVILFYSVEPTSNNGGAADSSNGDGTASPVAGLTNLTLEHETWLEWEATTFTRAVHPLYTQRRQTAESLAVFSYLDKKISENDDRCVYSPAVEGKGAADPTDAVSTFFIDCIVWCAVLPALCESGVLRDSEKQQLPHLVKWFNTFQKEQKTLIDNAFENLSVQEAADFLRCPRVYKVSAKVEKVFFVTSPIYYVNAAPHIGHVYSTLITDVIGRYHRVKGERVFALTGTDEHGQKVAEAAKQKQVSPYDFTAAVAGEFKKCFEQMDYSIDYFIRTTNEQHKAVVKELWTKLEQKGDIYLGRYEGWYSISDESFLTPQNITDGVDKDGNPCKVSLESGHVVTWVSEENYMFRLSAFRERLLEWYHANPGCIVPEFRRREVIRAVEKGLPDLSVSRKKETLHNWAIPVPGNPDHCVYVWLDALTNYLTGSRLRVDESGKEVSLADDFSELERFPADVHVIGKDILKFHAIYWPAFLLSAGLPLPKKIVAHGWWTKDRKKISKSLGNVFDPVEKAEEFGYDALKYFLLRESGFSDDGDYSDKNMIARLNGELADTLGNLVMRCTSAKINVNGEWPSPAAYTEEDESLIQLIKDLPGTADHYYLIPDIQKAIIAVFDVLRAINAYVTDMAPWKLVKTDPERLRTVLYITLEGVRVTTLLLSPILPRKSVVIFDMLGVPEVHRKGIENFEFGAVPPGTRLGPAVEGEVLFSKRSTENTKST

[11] = Counterscreen for inhibitors of Trypanosoma brucei methionyl tRNA synthetase (MetRS): Luminescence-based cell-based high throughput dose response assay to identify compounds that are cytotoxic to Jurkat human T lymphocyte cells.; format: functional
[12] = target: T5, Methionyl-tRNA synthetase, putative; format: functional, Trypanosoma brucei brucei strain 927/4 GUTat10.1; remark: listed apart in the source
[13] = target: T6, ATP-dependent translocase ABCB1 (Homo sapiens, UniProt P08183); test: ABCG2 efflux pump inhibitor potency, dose response, Ig-MXP3 cells, JC-1, flow cytometry, set 2 (AID 504566); format: functional; conditions: read-out: EC50_MICROM_;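 further: flow cytometry median green fluorescence of retained JC-1 dye; potency of efflux pump inhibition measured as rising substrate retention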
[14] = target: T6, ATP-dependent translocase ABCB1; test: ABCB1 efflux inhibitor potency, dose response, Jurkat-DNR cells, JC-1, flow cytometry, set 2 (AID 504569); format: functional; conditions: read-out: EC50_MICROM_;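 further: potency of pump inhibitors that raise cellular JC-1 green fluorescence up to the nicardipine level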

T1 sequence (Q9P0U3 whole entry): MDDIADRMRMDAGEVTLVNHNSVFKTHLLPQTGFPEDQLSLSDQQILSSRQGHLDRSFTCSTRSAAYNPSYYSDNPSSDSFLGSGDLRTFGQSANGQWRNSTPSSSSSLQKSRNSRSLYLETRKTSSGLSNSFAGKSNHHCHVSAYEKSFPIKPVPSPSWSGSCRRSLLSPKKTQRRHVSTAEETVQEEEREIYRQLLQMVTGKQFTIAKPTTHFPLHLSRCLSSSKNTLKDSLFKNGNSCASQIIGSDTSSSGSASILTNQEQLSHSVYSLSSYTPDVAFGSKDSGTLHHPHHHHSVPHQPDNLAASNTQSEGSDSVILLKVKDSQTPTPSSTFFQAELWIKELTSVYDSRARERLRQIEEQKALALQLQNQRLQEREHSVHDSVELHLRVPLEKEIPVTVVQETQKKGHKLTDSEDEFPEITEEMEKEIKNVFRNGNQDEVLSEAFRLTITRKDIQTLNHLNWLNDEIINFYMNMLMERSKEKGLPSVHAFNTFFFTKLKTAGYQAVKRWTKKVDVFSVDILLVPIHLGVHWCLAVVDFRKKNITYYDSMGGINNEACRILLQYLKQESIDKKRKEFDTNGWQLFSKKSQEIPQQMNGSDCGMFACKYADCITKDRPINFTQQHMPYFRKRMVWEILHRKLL
T6 sequence (P08183 whole entry): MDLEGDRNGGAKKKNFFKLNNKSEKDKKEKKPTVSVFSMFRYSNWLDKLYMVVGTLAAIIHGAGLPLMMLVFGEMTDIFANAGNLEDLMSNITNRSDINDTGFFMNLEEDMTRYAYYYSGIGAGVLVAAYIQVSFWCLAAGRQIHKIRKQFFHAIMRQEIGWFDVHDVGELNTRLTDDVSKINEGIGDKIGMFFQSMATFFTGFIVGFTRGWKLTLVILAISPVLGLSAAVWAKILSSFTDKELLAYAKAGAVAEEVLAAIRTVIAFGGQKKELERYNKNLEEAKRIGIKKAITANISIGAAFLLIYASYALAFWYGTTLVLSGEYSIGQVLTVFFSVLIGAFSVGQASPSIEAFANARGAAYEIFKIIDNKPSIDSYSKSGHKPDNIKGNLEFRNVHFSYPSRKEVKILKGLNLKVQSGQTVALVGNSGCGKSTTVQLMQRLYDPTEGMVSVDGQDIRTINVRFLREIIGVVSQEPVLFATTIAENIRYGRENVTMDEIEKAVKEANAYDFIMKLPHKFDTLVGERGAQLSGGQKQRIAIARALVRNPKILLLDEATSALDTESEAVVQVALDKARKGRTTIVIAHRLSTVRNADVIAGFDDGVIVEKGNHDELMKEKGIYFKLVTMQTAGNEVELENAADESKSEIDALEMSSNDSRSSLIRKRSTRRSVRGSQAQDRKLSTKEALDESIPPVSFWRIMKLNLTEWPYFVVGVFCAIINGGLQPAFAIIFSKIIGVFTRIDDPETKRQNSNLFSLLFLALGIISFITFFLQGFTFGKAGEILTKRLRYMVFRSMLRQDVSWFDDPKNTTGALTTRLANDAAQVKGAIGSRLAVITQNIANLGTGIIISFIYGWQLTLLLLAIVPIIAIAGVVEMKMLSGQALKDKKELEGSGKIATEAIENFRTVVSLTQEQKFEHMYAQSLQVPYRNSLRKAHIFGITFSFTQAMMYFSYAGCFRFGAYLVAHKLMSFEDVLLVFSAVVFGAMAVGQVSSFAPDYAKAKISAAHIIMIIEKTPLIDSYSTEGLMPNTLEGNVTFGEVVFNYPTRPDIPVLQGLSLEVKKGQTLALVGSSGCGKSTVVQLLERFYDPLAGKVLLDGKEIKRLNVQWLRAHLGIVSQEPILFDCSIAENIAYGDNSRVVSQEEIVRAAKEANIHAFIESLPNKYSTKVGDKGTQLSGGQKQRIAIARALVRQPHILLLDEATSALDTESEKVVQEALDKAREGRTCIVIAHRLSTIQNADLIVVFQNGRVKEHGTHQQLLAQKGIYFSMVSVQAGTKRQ
Chain of Steroidogenic factor 1 (Q13285 whole entry): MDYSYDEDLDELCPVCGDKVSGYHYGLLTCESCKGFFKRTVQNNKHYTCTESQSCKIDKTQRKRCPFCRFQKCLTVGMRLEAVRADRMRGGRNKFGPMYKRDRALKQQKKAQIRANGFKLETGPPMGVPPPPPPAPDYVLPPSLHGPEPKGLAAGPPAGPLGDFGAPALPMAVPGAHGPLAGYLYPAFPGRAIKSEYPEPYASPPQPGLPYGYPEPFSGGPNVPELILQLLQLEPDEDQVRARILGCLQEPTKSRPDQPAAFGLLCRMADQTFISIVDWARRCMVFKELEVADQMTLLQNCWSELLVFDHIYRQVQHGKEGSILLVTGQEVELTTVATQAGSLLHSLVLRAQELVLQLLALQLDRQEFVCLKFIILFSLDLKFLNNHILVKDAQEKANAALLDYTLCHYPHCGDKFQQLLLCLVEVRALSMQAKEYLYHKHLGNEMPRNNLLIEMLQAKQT
Chain of Low molecular weight phosphotyrosine protein phosphatase (P24666 whole entry, the tested form may be a part): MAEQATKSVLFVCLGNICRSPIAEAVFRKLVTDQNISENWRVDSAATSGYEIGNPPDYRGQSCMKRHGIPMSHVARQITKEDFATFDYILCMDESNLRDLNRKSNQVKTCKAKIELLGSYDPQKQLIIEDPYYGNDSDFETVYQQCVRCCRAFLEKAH
Chain of Nuclear receptor subfamily 5 group A member 2 (O00482 whole entry): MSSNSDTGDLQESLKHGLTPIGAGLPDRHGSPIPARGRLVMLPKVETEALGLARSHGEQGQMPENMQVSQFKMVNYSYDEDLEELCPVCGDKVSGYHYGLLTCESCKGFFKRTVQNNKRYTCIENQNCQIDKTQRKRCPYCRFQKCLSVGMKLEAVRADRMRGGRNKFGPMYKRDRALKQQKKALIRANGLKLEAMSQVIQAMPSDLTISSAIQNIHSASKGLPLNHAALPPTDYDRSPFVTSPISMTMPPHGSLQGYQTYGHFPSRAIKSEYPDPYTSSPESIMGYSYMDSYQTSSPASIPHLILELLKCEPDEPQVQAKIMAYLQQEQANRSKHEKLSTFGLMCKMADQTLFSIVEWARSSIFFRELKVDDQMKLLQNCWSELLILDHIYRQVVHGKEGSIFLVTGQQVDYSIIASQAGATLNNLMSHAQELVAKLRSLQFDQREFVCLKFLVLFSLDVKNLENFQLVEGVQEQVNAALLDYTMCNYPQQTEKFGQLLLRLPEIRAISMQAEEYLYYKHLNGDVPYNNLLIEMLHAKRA

IC50 [1]: 13.2 µM (active)
EC50 [2]: 95.5 µM (active)
IC50 [3]: 13.8 µM (active)
SMILES: CSc1c(C#N)c(N)nc2sc(C(=O)c3ccccc3)c(N)c12

EC50 [13]: 1.3 µM (active)
EC50 [14]: 4.86 µM (active)
SMILES: COc1ccc(-c2cc(N3CCN(C(=O)c4ccoc4)CC3)n3nc(-c4cccc(Cl)c4)cc3n2)cc1

Continued, compound first:

SMILES: CCOc1ccc(NC(=O)CSc2nc(O)c3c[nH]nc3n2)cc1
IC50 [4]: 35.9 µM (inactive)
IC50 (Steroidogenic factor 1): 2.89 µM (active)
IC50 [5]: 8.61 µM (active)

SMILES: NS(=O)(=O)c1ccc(CCNC(=O)c2ccc3nccnc3c2)cc1
IC50 [6]: 17.1 µM (active)
IC50 [7]: 54.2 µM (inactive)

SMILES: CN1CCC2(CC1)N=C(c1ccc(F)cc1)C(=S)N2C(=O)c1ccccc1
IC50 [8]: > 100 µM (inactive)
IC50 [9]: 28.6 µM (active)

SMILES: O=C(CCCOc1ccc(Cl)cc1Cl)N/N=C/c1ccccc1
IC50 [10]: 16 µM (inactive)
IC50 [11]: 83.3 µM (inactive)
IC50 [12]: 110 µM (inactive)
